Reference: patent US20240197674A1, “NOVEL USE OF 3-(4-(BENZYLOXY)PHENYL)HEX-4-INOIC ACID DERIVATIVE” (Hyundai Pharm Co., Ltd., priority 2021, published 2024)
“Also recorded” adds a separate entry of the source.

Tests used:
Assay type in all cases: cell-based
C2C12 cells [1] = test: Expression of myogenic factors MyoG and MyHC by western blotting in C2C12 myoblasts; conditions: differentiation medium (2% horse serum DMEM), 3 days
Method: (§1) C2C12 cells, which are myoblasts, were cultured and treated with a mixture of Compound A in a differentiation medium [2% horse serum (Cat No. 16050, Invitrogen, USA)-containing DMEM (Cat No. 11965, Invitrogen)] for 3 days. Afterward, the change in expression of myogenin (myogenic factor 4, MyoG) and a myosin heavy chain (MyHC), which are known as myogenic factors, was confirmed by western blotting. As primary antibodies, a MyoG antibody (Santa Cruz, sc-12732), a MyHC antibody (Santa Cruz, sc-32732), and a beta-actin antibody (Santa Cruz, sc-47778) were used. As a result, it can be confirmed that the higher the treatment concentration of Compound A, the higher the expression of MyoG and MyHC (FIG. 1).
(§2) Since Compound A is known as a G-protein-coupled receptor40 agonist (GPR40 agonist), it was confirmed whether the myogenesis promoting effect (Experimental Example 1) of Compound A is a general effect of GPR40 agonists. Specifically, experiments were conducted in the same manner as in Experimental Examples 1 and 2, except that C2C12 cells were treated with LY2922470 instead of Compound A. As a result of the experiments, it can be seen that, when the C2C12 cells were treated with LY2922470, the expression of myogenic factors MyoG and MyHC was inhibited (FIG. 7), the MyHC positive area decreased, and myotube formation was inhibited (FIG. 8).

C2C12 cells [2] = test: MyHC immunohistochemistry: MyHC positive area, myotube thickness and myotube formation; conditions: C2C12 myoblasts, differentiation medium, 3 days
Method: as §1
In addition, C2C12 cells were treated with Compound A in the same manner as above, and then immunohistochemistry was performed with a MyHC antibody. As a result, it was confirmed that, as the treatment concentration of Compound A increases, the MyHC positive area and myotube thickness increase (FIG. 2).
as §2

C2C12 cells [3] = test: Bax/Bcl2 ratio by western blotting after palmitate treatment; conditions: with palmitate in growth medium, 24 hours, versus palmitate only
Method: (§3) Sarcopenia is known to be accelerated by diabetes, obesity, or inflammatory responses. Accordingly, it was confirmed whether Compound A can inhibit muscle loss even under the above conditions as follows. Palmitate (PA; P9767, Sigma-Aldrich, USA) was dissolved in ethanol and then mixed with bovine serum albumin (BSA; A7888, Sigma-Aldrich) dissolved in DMEM at a molar ratio of 6:1, followed by conjugation at 60° C. for 1 hour. Cells were treated with the resulting conjugate.
(§4) After mixing Compound A and the palmitate in a growth medium (10% FBS (Cat No. 16000, Invitrogen)-containing DMEM), C2C12 cells were treated with the resulting mixture for 24 hours, and then a Bax/Bcl2 ratio was confirmed by western blotting and cell viability was assessed using a cell viability assay kit (Dozen, EZ-3000). Primary antibodies used herein were the Bax antibody (Santa Cruz, sc-7480) and Bcl2 antibody (Santa Cruz, sc-7382). Bax is a protein inducing apoptosis, and Bcl2 is a protein inhibiting apoptosis by hindering the migration of Bax to mitochondria.

C2C12 cells [4] = test: Cell viability assay kit after palmitate treatment; conditions: with palmitate in growth medium, 24 hours, versus palmitate only
Method: as §3, §4, §2

C2C12 cells [5] = test: MyoG and MyHC expression after palmitate treatment and 3 days of differentiation; conditions: with palmitate 24 hours, then 3 days differentiation, versus decrease by palmitate only
Method: as §3
(§5) Compound A and the palmitate were mixed in a growth medium (10% FBS-containing DMEM), and C2C12 cells were treated with the resulting mixture. After 24 hours, the medium was exchanged with a fresh […] to induce differentiation for 3 days, and after 3 days, the cells were collected to confirm the expression of MyoG and MyHC, and the changes in MyHC positive area and myotube thickness.

C2C12 cells [6] = test: MyHC positive area and myotube thickness after palmitate treatment and 3 days of differentiation; conditions: with palmitate 24 hours, then 3 days differentiation, versus decrease by palmitate only
Method: as §3, §5

C2C12 cells [7] = test: Atrogin-1 expression in differentiated C2C12 myotubes treated with palmitate; conditions: C2C12 differentiated 6 days into myotubes, with palmitate in differentiation medium, versus palmitate only
Method: as §3
(§6) Atrogin-1 is a type of E3 ubiquitin ligase and a marker associated with muscular atrophy, and it is known that, as its gene expression increases, muscle is broken down. To confirm the change in atrogin-1 expression by Compound A, C2C12 cells were cultured in a differentiation medium for 6 days to induce differentiation into myotubes, and the differentiated cells were treated with a mixture of Compound A and palmitate in a differentiation medium. Afterward, an expression level was confirmed using an atrogin-1 antibody (Abnova, PAB15627), and cell viability was measured.

C2C12 cells [8] = test: Cell viability of differentiated C2C12 myotubes treated with palmitate; conditions: C2C12 differentiated 6 days into myotubes, with palmitate in differentiation medium, versus palmitate only
Method: as §3, §6

[9] = immunohistochemistry with MyHC antibody

| SMILES | expression of MyHC (C2C12 cells [1]) | expression of MyoG (C2C12 cells [1]) | myotube formation (C2C12 cells [2]) | Bax/Bcl2 ratio (C2C12 cells [3]) | cell viability (apoptosis caused by palmitate) (C2C12 cells [4]) | expression of MyHC (C2C12 cells [5]) | expression of MyoG (C2C12 cells [5]) | MyHC positive area (C2C12 cells [6]) | myotube thickness (C2C12 cells [6]) | MyHC positive area (C2C12 cells [2]; [9]) | myotube thickness (C2C12 cells [2]; [9]) | atrogin-1 expression (C2C12 cells [7]) | cell viability (C2C12 cells [8]) |
| --- | --- | --- | --- | --- | --- | --- | --- | --- | --- | --- | --- | --- | --- |
| CC#C[C@@H](CC(=O)O)c1ccc(OCc2cccc(C3=CCC4(CC3)OCCO4)c2)cc1 [compound of Formula 1, (3S)-3-(4-(3-(1,4-dioxaspiro[4,5]des-7-en-8-yl)benzyloxy)phenyl)hex-4-inoic acid] | increases | increases | promoted | reversed | reversed | reversed | reversed | reversed | reversed |  |  |  |  |
| CC#C[C@@H](CC(=O)O)c1ccc(OCc2ccc(CN3CCCc4cccc(OC)c43)s2)cc1 [LY2922470, reference compound] | inhibited | inhibited | inhibited |  | did not inhibit apoptosis |  |  |  |  | decreased |  |  |  |
| CC#C[C@@H](CC(=O)O)c1ccc(OCc2cccc(C3=CCC4(CC3)OCCO4)c2)cc1 [Compound A, (3S)-3-(4-(3-(1,4-dioxaspiro[4,5]des-7-en-8-yl)benzyloxy)phenyl)hex-4-inoic acid] | higher | higher |  | decreased | increased; also recorded: inhibited apoptosis | reversed | reversed | reversed | reversed | increase | increase | decreased | recovered |
